Assay results published in PMC2874095 (Journal of medicinal chemistry, 2010).
Changes are numbered by the printed parent chain. Read-outs that look alike come from different tables or passages of the source.

Assays:
[1] = system: CV1 and HT1080 cells
[2] = target: T1, N1L (Vaccinia virus, UniProt P17361); type: binding
T1 sequence (P17361 1-117): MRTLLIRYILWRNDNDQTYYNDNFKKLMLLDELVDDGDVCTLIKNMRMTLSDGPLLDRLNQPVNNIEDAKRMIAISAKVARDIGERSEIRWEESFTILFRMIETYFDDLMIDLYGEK

[3] = target: T1, N1L; type: binding; remark: listed apart in the source
[4] = target: T2, N1L I6K (Vaccinia virus, UniProt P17361, I6K); type: binding
T2 sequence (P17361 1-117 I6K): T1 sequence (P17361 1-117) with I6K

[5] = target: Bcl-2 (Homo sapiens, UniProt P10415); type: binding; details: FPA, incomplete titration curves
Sequence of Bcl-2 (P10415 whole entry): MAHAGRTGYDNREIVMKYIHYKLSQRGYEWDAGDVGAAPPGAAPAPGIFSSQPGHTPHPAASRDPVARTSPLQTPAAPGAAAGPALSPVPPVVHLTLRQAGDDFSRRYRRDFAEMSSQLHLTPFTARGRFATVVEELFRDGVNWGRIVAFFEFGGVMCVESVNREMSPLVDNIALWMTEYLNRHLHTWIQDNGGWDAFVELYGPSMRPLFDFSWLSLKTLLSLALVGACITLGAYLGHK

[6] = target: Bcl-XL (Homo sapiens, UniProt Q07817); type: binding; details: FPA, incomplete titration curves
Sequence of Bcl-XL (Q07817 whole entry): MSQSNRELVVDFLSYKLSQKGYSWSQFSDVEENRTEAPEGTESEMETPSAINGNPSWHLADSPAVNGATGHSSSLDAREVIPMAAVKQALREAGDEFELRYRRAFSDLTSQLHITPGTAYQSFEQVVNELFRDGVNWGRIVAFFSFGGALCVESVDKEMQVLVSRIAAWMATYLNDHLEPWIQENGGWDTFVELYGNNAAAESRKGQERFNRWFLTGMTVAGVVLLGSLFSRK

[7] = system: VacV-GFP; type: cell-based, vaccinia virus
[8] = compound concentrations above 100 μM

SMILES	non-specific cytotoxicity (in words) [1, 8]	ΔH of N1L unfolding [2] [kcal/mol]	binding to Bcl-2 (in words) [5]	binding to Bcl-XL (in words) [6]	further results
COc1ccc(C(C)c2cc(OC)c(OC)c(OC)c2)cc1 (centres unmarked) [Ligand 2]	no significant non-specific cytotoxicity				
COc1ccc(CCc2cc(OC)c(O)c(OC)c2)cc1 [Ligand 3]		11.0			
Oc1ccc(/C=C/c2cc(O)cc(O)c2)cc1 [Ligand 4, trans-Resveratrol]		10.3			N1L inhibition (in words) [3]: moderate N1L inhibitor; Tm of N1L I6K [4]: 61.1 °C; ΔH of N1L I6K unfolding [4]: 15.9 kcal/mol
COc1cc(C(c2ccccc2)c2ccccc2)c2ccccc2c1O [Ligand 6]		8.7			
Oc1cc(C(c2ccccc2)c2ccccc2)c2ccccc2c1O [Ligand 7]		12.3	poor ligand binding	poor ligand binding	
COc1ccc2ccccc2c1-c1c(O)ccc2ccccc12 [Ligand 8]			cross-reactivity	cross-reactivity	antiviral activity (in words) [7]: poor antiviral; non-specific cytotoxicity (in words) ([1]; absence of VacV-GFP, up to 150 μM): cytotoxicity in uninfected cells
Oc1ccc(/C=N/c2ccccc2/N=C/c2ccc(O)c(O)c2)cc1O [Ligand 9]	no significant non-specific cytotoxicity	17.8			
COc1cc(-c2ccc3cc(OC)c(OC)c(OC)c3c2)cc(OC)c1OC [Ligand 11]	no significant non-specific cytotoxicity	20.3	poor ligand binding	poor ligand binding	effect on N1L enthalpy of unfolding (in words) [2]: increase of enthalpy of unfolding; effect on N1L melting temperature (in words) [2]: slight decrease of melting temperature
Oc1cc(Cc2ccccc2)c(Cc2ccccc2)cc1O [Ligand 12]		11.2			
